Reference: PubChem BioAssay AID270 (DTP/NCI, 2004)
Values joined by “and” are separate entries in the source; they are usually repeats but may differ in a detail not shown here. Equal entries are not always repeated. Inconclusive results are not listed.

System: BDF1 mice, s.c. Lewis lung carcinoma, T/C %
Assay: NCI In Vivo Anticancer Drug Screen. Data for tumor model Lewis Lung Carcinoma (subcutaneous) in B6D2F1 (BDF1) mice
Outline: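 Tumor-bearing mice were treated with test compound, and either survival or tumor size was recorded. Values are the treated-group measurement divided by that of the vehicle-treated control group.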

Q: What does the source list for `N#CCCN(Cc1ccccc1)C(N)=O`?
A: T/C (endpoint: mean tumor weight, dose: 0.5 mg/kg/injection, schedule: Q01DX011 (ip), vehicle: other, higher = larger tumour): 73 % of control; T/C (endpoint: mean tumor weight, dose: 1.0 mg/kg/injection, schedule: Q01DX011 (ip), vehicle: other, higher = larger tumour): 68 % of control; T/C (endpoint: mean tumor weight, dose: 2.0 mg/kg/injection, schedule: Q01DX011 (ip), vehicle: other, higher = larger tumour): 48 % of control; T/C (endpoint: mean tumor weight, dose: 4.0 mg/kg/injection, schedule: Q01DX011 (ip), vehicle: other, higher = larger tumour): 55 % of control

Q: What does the source list for `C[C@]12CC[C@H]3[C@@H](CC[C@]4(O)C[C@@H](O)CC[C@]34/C=N/O)[C@@]1(O)CC[C@@H]2C1=COC(=O)C1`?
A: T/C (endpoint: mean tumor weight, dose: 1.87 mg/kg/injection, schedule: Q01DX011 (ip), vehicle: carboxymethylcellulose (CMC), higher = larger tumour): 34 % of control; T/C (endpoint: mean tumor weight, dose: 3.75 mg/kg/injection, schedule: Q01DX011 (ip), vehicle: carboxymethylcellulose (CMC), higher = larger tumour): 58 % of control; T/C (endpoint: mean tumor weight, dose: 15.0 mg/kg/injection, schedule: Q01DX011 (ip), vehicle: carboxymethylcellulose (CMC), higher = larger tumour): 92 % of control; T/C (endpoint: mean tumor weight, dose: 30.0 mg/kg/injection, schedule: Q01DX011 (ip), vehicle: carboxymethylcellulose (CMC), higher = larger tumour): 61 % of control

Q: `CCOC(=O)C(CC(C)C)NC(=O)C(Cc1ccc(N(CCCl)CCCl)cc1)NC(C)=O` (stereo not given) was tested. Which T/C (endpoint: median survival time, dose: 1.0 mg/kg/injection, schedule: Q01DX009 (ip), vehicle: saline with Tween-80, higher = longer survival) did it give?
A: Its T/C is 88 % of control.

Q: What about the T/C (endpoint: median survival time, dose: 2.0 mg/kg/injection, schedule: Q01DX009 (ip), vehicle: saline with Tween-80, higher = longer survival) of the same compound?
A: Its T/C is 95 % of control.

Q: And the T/C (endpoint: median survival time, dose: 4.0 mg/kg/injection, schedule: Q01DX009 (ip), vehicle: saline with Tween-80, higher = longer survival)?
A: The T/C was 111 % of control.

Q: And the T/C (endpoint: median survival time, dose: 8.0 mg/kg/injection, schedule: Q01DX009 (ip), vehicle: saline with Tween-80, higher = longer survival)?
A: The T/C was 108 % of control.

Q: What about the T/C (endpoint: median survival time, dose: 16.0 mg/kg/injection, schedule: Q01DX009 (ip), vehicle: saline with Tween-80, higher = longer survival) of the same compound?
A: Its T/C is 116 % of control.

Q: What does the source list for `Cc1ccnc(NS(=O)(=O)c2ccc(N=Nc3nc4[nH]c(N)nc(=S)c4[nH]3)cc2)n1`?
A: T/C (endpoint: median survival time, dose: 0.19 mg/kg/injection, schedule: Q01DX009 (ip), vehicle: Klucel (hydroxypropylcellulose) (HPC), higher = longer survival): 106 % of control; T/C (endpoint: median survival time, dose: 0.39 mg/kg/injection, schedule: Q01DX009 (ip), vehicle: Klucel (hydroxypropylcellulose) (HPC), higher = longer survival): 94 % of control; T/C (endpoint: median survival time, dose: 0.78 mg/kg/injection, schedule: Q01DX009 (ip), vehicle: Klucel (hydroxypropylcellulose) (HPC), higher = longer survival): 97 % of control; T/C (endpoint: median survival time, dose: 1.56 mg/kg/injection, schedule: Q01DX009 (ip), vehicle: Klucel (hydroxypropylcellulose) (HPC), higher = longer survival): 87 % of control and 103 % of control

Q: How did the T/C (endpoint: mean tumor weight, dose: 1.5 mg/kg/injection, schedule: Q01DX011 (ip), vehicle: saline, higher = larger tumour) turn out when `CN(C)c1ccc(C(N)=O)cn1` was run?
A: Its T/C is 100 % of control.

Q: What about the T/C (endpoint: mean tumor weight, dose: 3.0 mg/kg/injection, schedule: Q01DX011 (ip), vehicle: saline, higher = larger tumour) of the same compound?
A: The T/C was 63 % of control.

Q: And the T/C (endpoint: mean tumor weight, dose: 6.0 mg/kg/injection, schedule: Q01DX011 (ip), vehicle: saline, higher = larger tumour)?
A: The T/C was 36 % of control.

Q: How did the T/C (endpoint: median survival time, dose: 0.12 mg/kg/injection, schedule: Q01DX009 (ip), vehicle: other, higher = longer survival) turn out when `COC(=O)[C@@]12OC[C@]34[C@H]([C@@H](O)[C@@H]1O)[C@@]1(C)CC(=O)C(O)=C(C)[C@@H]1C[C@H]3OC(=O)[C@H](OC(=O)/C=C(\C)C(C)C)[C@@H]24` was run?
A: The T/C was 99 % of control.

Q: And the T/C (endpoint: median survival time, dose: 0.25 mg/kg/injection, schedule: Q01DX009 (ip), vehicle: other, higher = longer survival)?
A: Its T/C is 91 % of control.

Q: And the T/C (endpoint: median survival time, dose: 0.5 mg/kg/injection, schedule: Q01DX009 (ip), vehicle: other, higher = longer survival)?
A: Its T/C is 92 % of control.

Q: What about the T/C (endpoint: median survival time, dose: 1.0 mg/kg/injection, schedule: Q01DX009 (ip), vehicle: other, higher = longer survival) of the same compound?
A: Its T/C is 91 % of control.

Q: And the T/C (endpoint: median survival time, dose: 2.0 mg/kg/injection, schedule: Q01DX009 (ip), vehicle: other, higher = longer survival)?
A: Its T/C is 87 % of control.

Q: `CCC(c1ccc(O)cc1)C(CC)c1ccc(OC)cc1` (stereo not given) was tested. Which T/C (endpoint: mean tumor weight, dose: 4.0 mg/kg/injection, schedule: Q01DX011 (sc), vehicle: steriod suspending solution, higher = larger tumour) did it give?
A: The T/C was 60 % of control.

Q: What about the T/C (endpoint: mean tumor weight, dose: 8.0 mg/kg/injection, schedule: Q01DX011 (sc), vehicle: steriod suspending solution, higher = larger tumour) of the same compound?
A: The T/C was 36 % of control.

Q: What about the T/C (endpoint: mean tumor weight, dose: 16.0 mg/kg/injection, schedule: Q01DX011 (sc), vehicle: steriod suspending solution, higher = larger tumour) of the same compound?
A: The T/C was 33 % of control.

Q: What about the T/C (endpoint: mean tumor weight, dose: 31.3 mg/kg/injection, schedule: Q01DX011 (ip), vehicle: saline, higher = larger tumour) of the same compound?
A: The T/C was 23 % of control.

Q: What about the T/C (endpoint: mean tumor weight, dose: 32.0 mg/kg/injection, schedule: Q01DX011 (sc), vehicle: steriod suspending solution, higher = larger tumour) of the same compound?
A: The T/C was 16 % of control.

Q: What about the T/C (endpoint: mean tumor weight, dose: 62.5 mg/kg/injection, schedule: Q01DX011 (ip), vehicle: saline, higher = larger tumour) of the same compound?
A: The T/C was 21 % of control.

Q: And the T/C (endpoint: mean tumor weight, dose: 125.0 mg/kg/injection, schedule: Q01DX011 (ip), vehicle: saline, higher = larger tumour)?
A: Its T/C is 16 % of control.

Q: And the T/C (endpoint: mean tumor weight, dose: 250.0 mg/kg/injection, schedule: Q01DX011 (ip), vehicle: saline, higher = larger tumour)?
A: The T/C was 13 % of control.

Q: What does the source list for `CCCNc1ncnc2c1cnn2C`?
A: T/C (endpoint: mean tumor weight, dose: 3.12 mg/kg/injection, schedule: Q01DX011 (ip), vehicle: saline, higher = larger tumour): 95 % of control; T/C (endpoint: mean tumor weight, dose: 6.25 mg/kg/injection, schedule: Q01DX011 (ip), vehicle: saline, higher = larger tumour): 89 % of control; T/C (endpoint: mean tumor weight, dose: 12.5 mg/kg/injection, schedule: Q01DX011 (ip), vehicle: saline, higher = larger tumour): 65 % of control; T/C (endpoint: mean tumor weight, dose: 25.0 mg/kg/injection, schedule: Q01DX011 (ip), vehicle: saline, higher = larger tumour): 28 % of control

Q: With `NC(CSC(c1ccccc1)(c1ccccc1)c1ccccc1)C(=O)O` (stereo not given) as the compound, how does the T/C (endpoint: mean tumor weight, dose: 12.0 mg/kg/injection, schedule: Q01DX011 (ip), vehicle: methylcellulose (MC), higher = larger tumour) read?
A: The T/C was 115 % of control.

Q: What about the T/C (endpoint: median survival time, dose: 8.0 mg/kg/injection, schedule: Q01DX009 (ip), vehicle: Klucel (hydroxypropylcellulose) (HPC), higher = longer survival) of the same compound?
A: Its T/C is 120 % of control.

Q: And the T/C (endpoint: median survival time, dose: 32.0 mg/kg/injection, schedule: Q01DX009 (ip), vehicle: Klucel (hydroxypropylcellulose) (HPC), higher = longer survival)?
A: Its T/C is 112 % of control.
